Assay results taken from patent US20230066011A1, “PYRROLOPYRIMIDINE DERIVATIVE, AND PHARMACEUTICAL COMPOSITION FOR PREVENTING OR TREATING PROTEIN KINASE-RELATED DISEASE COMPRISING SAME AS ACTIVE INGREDIENT” (VORONOI CO., LTD., priority 2019, published 2023).

Assays:
human GST-DYRK1A = target: T1, human GST-DYRK1A (Homo sapiens, UniProt Q13627); assay: GST-DYRK1A enzyme inhibition, ADP-Glo kinase assay; type: biochemical; details: ATP 10 μM, GST-DYRK1A full length, read-out: DYRK1 IC50
T1 construct: purified human GST-DYRK1A (full length, Thermo Scientifics) enzyme; purchased Thermo Scientifics
Summary of the method: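 Full-length enzyme (10 ng) was incubated with 10 μM ATP and a specific substrate for 1 h at 25 °C in 40 mM Tris-HCl pH 7.4, 20 mM MgCl2, 0.5 mg/mL BSA, 50 μM DTT. Luminescence was read against a solvent control, and IC50 values were derived from 3 data sets.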

human GST-CLK1 = target: T2, human GST-CLK1 (Homo sapiens, UniProt P49759); assay: GST-CLK1 enzyme inhibition, ADP-Glo kinase assay; type: biochemical; details: ATP 10 μM, GST-CLK1 129-end
T2 construct: purified human GST-CLK1 (129-end, SignalChem) enzyme; purchased SignalChem
T2 sequence (P49759 129-484 limits assumed): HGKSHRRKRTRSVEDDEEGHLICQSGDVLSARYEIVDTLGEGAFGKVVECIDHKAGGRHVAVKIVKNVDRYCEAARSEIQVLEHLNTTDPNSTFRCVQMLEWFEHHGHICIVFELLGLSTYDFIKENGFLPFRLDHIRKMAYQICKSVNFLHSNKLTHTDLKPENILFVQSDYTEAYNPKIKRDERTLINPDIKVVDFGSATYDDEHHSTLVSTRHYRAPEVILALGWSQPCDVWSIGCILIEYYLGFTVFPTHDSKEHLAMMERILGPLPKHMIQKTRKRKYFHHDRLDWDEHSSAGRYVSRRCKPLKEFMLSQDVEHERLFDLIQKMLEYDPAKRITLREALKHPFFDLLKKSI
Summary of the method: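 ADP-Glo luminescence read-out, relative to untreated solvent control, gave IC50 (nM) from triplicate data sets. Reactions ran an hour at 25° C with 3 ng GST-CLK1 (residues 129-end), 10 μM ATP and specific substrate in Tris-HCl pH 7.4 buffer with MgCl2, BSA and DTT.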

SMILES	IC50 (human GST-DYRK1A)	IC50 (human GST-CLK1)
COc1cc(S(=O)(=O)N2CCC(N3CCOCC3)CC2)ccc1Nc1nc(N[C@H]2CCOC2)c2cc[nH]c2n1 [Example 29, (S)-N^2-(2-methoxy-4-((4-morpholinopiperidin-1-yl)sulfonyl)phenyl)-N^4-(tetrahydrofuran-3-yl)-7H-pyrrolo[2,3-d]pyrimidine-2,4-diamine]	301 to 1000 nM	301 to 1000 nM
N#Cc1c[nH]c2nc(Nc3ccc(C(=O)N4CC(CO)(CO)C4)c4c3OCCO4)nc(NC3CCOCC3)c12 [Example 337, 2-((8-(3,3-bis (hydroxymethyl)azetidine-1-carbonyl)-2,3-dihydrobenzo[b] [1,4]dioxin-5-yl)amino)-4-((tetrahydro-2H-pyran-4-yl)amino)-7H-pyrrolo[2,3-d]pyrimidine-5-carbonitrile]	301 to 1000 nM	< 100 nM
O=C(c1ccc(Nc2nc(N[C@H]3CCOC3)c3cc[nH]c3n2)c2c1OCCO2)N1CCOCC1 [Example 51, (S)-morpholino(8-((4-((tetrahydrofuran-3-yl)amino)-7H-pyrrolo[2,3-d]pyrimidin-2-yl)amino)-2,3-dihydrobenzo[b][1,4]dioxin-5-yl)methanone]	301 to 1000 nM	301 to 1000 nM
CC[C@@H](C)Nc1nc(Nc2ccc(P3(=O)CCN(C4CC4)CC3)cc2OC)nc2[nH]cc(C#N)c12 [Example 294, (R)-4-(sec-butylamino)-2-((4-(1-cyclopropyl-4-oxido-1,4-azaphosphinan-4-yl)-2-methoxyphenyl)a-mino)-7H-pyrrolo[2,3-d]pyrimidine-5-carbonitrile]	301 to 1000 nM	< 100 nM
CC[C@@H](C)Nc1nc(Nc2ccc(S(C)(=O)=O)cc2OC)nc2[nH]ccc12 [Example 16, (R)-N^4-(sec-butyl)-N^2-(2-methoxy-4-(4-methylsulfonyl)phenyl)-7H-pyrrolo[2,3-d]pyrimidine-2,4-diamine]	301 to 1000 nM	301 to 1000 nM
COc1cc(P2(=O)CCN(C3CCOCC3)CC2)ccc1Nc1nc(NC2CCCCC2)c2c(C#N)c[nH]c2n1 [Example 324, 4-(cyclo-hexylamino)-2-((2-methoxy-4-(4-oxido-1-(tetrahydro-2H-pyran-4-yl)-1,4-azaphosphinan-4-yl)phenyl)amino)-7H-pyrrolo[2,3-d]pyrimidine-5-carbonitrile]	301 to 1000 nM	< 100 nM
COc1cc(P2(=O)CCN(C3CC3)CC2)ccc1Nc1nc(NC2CC2)c2c(C#N)c[nH]c2n1 [Example 285, 2-((4-(1-cyclopropyl-4-oxido-1,4-azaphosphinan-4-yl)-2-methoxyphenyl)a-mino)-4-(cyclo-propylamino)-7H-pyrrolo[2,3-d]pyrimidine-5-carbonitrile]	301 to 1000 nM	101 to 300 nM
COc1cc(P2(=O)CCN(C3CC3)CC2)ccc1Nc1nc(N[C@@H]2CCOC2)c2c(C#N)c[nH]c2n1 [Example 298, (R)-2-((4-(1-cyclopropyl-4-oxido-1,4-azaphosphinan-4-yl)-2-methoxyphenyl)a-mino)-4-((tetrahydrofuran-3-yl)amino)-7H-pyrrolo[2,3-d]pyrimidine-5-carbonitrile]	301 to 1000 nM	301 to 1000 nM
COc1cc(P2(=O)CCN(C3COC3)CC2)ccc1Nc1nc(NCC(C)C)c2c(C#N)c[nH]c2n1 [Example 291, 4-(isobutyl-amino)-2-((2-methoxy-4-(1-(oxetan-3-yl)-4-oxido-1,4-azaphosphinan-4-yl)phenyl)amino)-7H-pyrrolo[2,3-d]pyrimidine-5-carbonitrile]	301 to 1000 nM	101 to 300 nM
COc1cc(S(C)(=O)=O)ccc1Nc1nc(NCC2CCCC2)c2c(C(F)(F)F)c[nH]c2n1 [Example 206, N^4-(cyclopentylmethyl)-N^2-(2-methoxy-4-(methylsulfonyl)phenyl)-5-(trifluoromethyl)-7H-pyrrolo[2,3-d]pyrimidine-2,4-diamine]	301 to 1000 nM	301 to 1000 nM
N#Cc1c[nH]c2nc(Nc3ccc(C(=O)N4CCOCC4)c4c3OCC4)nc(NCC3CCCC3)c12 [Example 342, 4-((cyclo-pentylmeth-yl)amino)-2-((4-(morpholine-4-carbonyl)-2,3-dihydrobenzo-furan-7-yl)amino)-7H-pyrrolo[2,3-d]pyrimidine-5-carbonitrile]	301 to 1000 nM	301 to 1000 nM
N#Cc1c[nH]c2nc(Nc3ccc(C(=O)N4CC(CO)(CO)C4)c4c3OCCO4)nc(NC3CCCC3)c12 [Example 334, 2-((8-(3,3-bis (hydroxymethyl)azetidine-1-carbonyl)-2,3-dihydrobenzo[b] [1,4]dioxin-5-yl)amino)-4-(cyclopentyl-amino)-7H-pyrrolo[2,3-d]pyrimidine-5-carbonitrile]	301 to 1000 nM	< 100 nM
CC[C@@H](C)Nc1nc(Nc2ccc(C(=O)N3CC(CO)(CO)C3)c3c2OCCO3)nc2[nH]cc(C#N)c12 [Example 330, (R)-2-((8-(3,3-bis(hydroxy-methyl)azetidine-1-carbonyl)-2,3-dihydrobenzo[b] [1,4]dioxin-5-yl)amino)-4-(sec-butylamino)-7H-pyrrolo[2,3-d]pyrimidine-5-carbonitrile]	301 to 1000 nM	< 100 nM
COc1cc(P(C)(C)=O)ccc1Nc1nc(NC2CCC2)c2c(C#N)c[nH]c2n1 [Example 268, 4-(cyclobutylamino)-2-((4-(dimethylphosphoryl)-2-methoxyphenyl)amino)-7H-pyrrolo[2,3-d]pyrimidine-5-carbonitrile]	301 to 1000 nM	101 to 300 nM
CNc1nc(Nc2ccc(P(C)(C)=O)cc2OC)nc2[nH]cc(C#N)c12 [Example 253, 2-((4-(dimethylphosphoryl)-2-methoxyphenyl)amino)-4-(methylamino)-7H-pyrrolo[2,3-d]pyrimidine-5-carbonitrile]	301 to 1000 nM	301 to 1000 nM
COc1cc(P(C)(C)=O)ccc1Nc1nc(NC2CCC2)c2c(C(F)(F)F)c[nH]c2n1 [Example 386, (4-((4-(cyclo-butylamino)-5-(trifluoromethyl)-7H-pyrrolo[2,3-d]pyrimidin-2-yl)amino)-3-methoxyphenyl) dimethyl phosphine oxide]	301 to 1000 nM	301 to 1000 nM
CC(C)Nc1nc(Nc2ccc(C(=O)N3CC(CO)(CO)C3)c3c2OCCO3)nc2[nH]cc(C#N)c12 [Example 329, 2-((8-(3,3-bis (hydroxymethyl)azetidine-1-carbonyl)-2,3-dihydrobenzo[b] [1,4]dioxin-5-yl)amino)-4-(isopropylamino)-7H-pyrrolo[2,3-d]pyrimidine-5-carbonitrile]	301 to 1000 nM	< 100 nM
N#Cc1c[nH]c2nc(Nc3ccc(C(=O)N4CC(CO)(CO)C4)c4c3OCCO4)nc(NCC3CCCC3)c12 [Example 340, 2-((8-(3,3-bis (hydroxymethyl)azetidine-1-carbonyl)-2,3-dihydrobenzo [b][1,4]dioxin-5-yl)amino)-4-((cyclopentyl-methyl)amino)-7H-pyrrolo[2,3-d]pyrimidine-5-carbonitrile]	301 to 1000 nM	< 100 nM
COc1cc(P(C)(C)=O)ccc1Nc1nc(NCC(C)C)c2c(C#N)c[nH]c2n1 [Example 255, 2-((4-(dimethylphosphoryl)-2-methoxyphenyl)amino)-4-(isobutylamino)-7H-pyrrolo[2,3-d]pyrimidine-5-carbonitrile]	301 to 1000 nM	301 to 1000 nM
CCNc1nc(Nc2ccc(C(=O)N3CCOCC3)c3c2OCC3)nc2[nH]cc(C#N)c12 [Example 346, 4-(ethylamino)-2-((4-(morpholine-4-carbonyl)-2,3-dihydrobenzo-furan-7-yl)amino)-7H-pyrrolo[2,3-d]pyrimidine-5-carbonitrile]	101 to 300 nM	< 100 nM
CCNc1nc(Nc2ccc(C(=O)N3CCC(N4CCOCC4)CC3)c3c2OCCO3)nc2[nH]cc(C#N)c12 [Example 258, 4-(ethylamino)-2-((8-(4-morpholinopiperidine-1-carbonyl)-2,3-dihydrobenzo[b][1,4]dioxin-5-yl)amino)-7H-pyrrolo[2,3-d]pyrimidine-5-carbonitrile]	301 to 1000 nM	< 100 nM
COc1cc(P2(=O)CCN(C3CC3)CC2)ccc1Nc1nc(N[C@H]2CCOC2)c2c(C#N)c[nH]c2n1 [Example 300, (S)-2-((4-(1-cyclopropyl-4-oxido-1,4-azaphosphinan-4-yl)-2-methoxyphenyl)a-mino)-4-((tetrahydrofuran-3-yl)amino)-7H-pyrrolo[2,3-d]pyrimidine-5-carbonitrile]	301 to 1000 nM	< 100 nM
COc1cc(P(C)(C)=O)ccc1Nc1nc(NCC(C)C)c2c(C(F)(F)F)c[nH]c2n1 [Example 370, (4-((4-(isobutylamino)-5-(trifluoromethyl)-7H-pyrrolo[2,3-d]pyrimidin-2-yl)amino)-3-methoxyphenyl) dimethyl-phosphine oxide]	301 to 1000 nM	< 100 nM
COc1cc(S(C)(=O)=O)ccc1Nc1nc(NCC2CCC2)c2c(C(F)(F)F)c[nH]c2n1 [Example 198, N^4-(cyclobutylmethyl)-N^2-(2-methoxy-4-(methylsulfonyl)phenyl)-5-(trifluoromethyl)-7H-pyrrolo[2,3-d]pyrimidine-2,4-diamine]	301 to 1000 nM	301 to 1000 nM
